Measurements as given in US20260152494A1, “CDK2 INHIBITORS AND METHODS OF USING THE SAME” (Cedilla Therapeutics, Inc., priority 2022, published 2026).

Columns and labels:
CDK2/Cyclin E1 = target: T1, CDK2/Cyclin E1 (Homo sapiens, UniProt P24941); experiment: CDK2/Cyclin E1 Caliper LabChip EZ Reader mobility shift assay; format: biochemical; conditions: 2.5 nM CDK2/Cyclin E1, 100 μM ATP, 1.5 μM fluorescent peptide, 30 min preincubation; read-out: Caliper Assay (CDK2/CCNE1): IC50
T1 construct: purchased Eurofins 14-475
Method: Example A1: CDK2/Cyclin E1 Caliper Assay
Inhibition of CDK2/Cyclin E1 activity in the presence of compounds of the present disclosure was evaluated using a Caliper LabChip® EZ Reader mobility shift assay. In the assay, CDK2/Cyclin E1 (Eurofins, 14-475) catalyzed the phosphorylation of a fluorescently tagged peptide 5-FAM-QSPKKG-CONH2 (PerkinElmer, FL Peptide 18) which induced a difference in capillary electrophoresis mobility. The peptide substrate and product were measured, and the conversion ratio was used to determine the inhibition (as % activity and IC50 values) of CDK2/Cyclin E1. Reactions contained 50 mM HEPES pH 7.5, 10 mM MgCl2, 1 mM EDTA, 2 mM DTT, 0.01% Brij35, 0.5 mg/mL BSA, 0.1% DMSO, 2.5 nM CDK2/Cyclin E1, 100 μM ATP, and 1.5 μM fluorescent peptide substrate.
Dose titrations of inhibitors in 100% DMSO were combined with 3.25 nM CDK2/Cyclin E1 and 130 μM of ATP in reaction buffer. The mixtures were incubated for 30 minutes before the addition of fluorescent peptide substrate to initiate the kinase reaction. The final conditions were 2.5 nM CDK2/Cyclin E1, 100 μM ATP, and 1.5 μM fluorescent peptide. The reactions were stopped after 100 minutes with the addition of EDTA (400 mM final EDTA concentration). The stopped reactions were analyzed on a Caliper LabChip® EZ Reader II. The conversion ratios were normalized to yield % activity, plotted against compound concentration, and fit to a four-parameter equation to determine the IC50 for each compound.

[1] = system: Kuramochi cells labeled with mApple-H2B; experiment: IncuCyte cell proliferation assay; format: cell-based; conditions: Kuramochi RB-WT cells, 72 hours, cell count normalized to DMSO
Method: Example A3: IncuCyte® Cell Proliferation Assay
IncuCyte® assay was used to measure the effect of disclosed compounds on cell proliferation. Fluorescent microscopy images of cells were taken immediately after compound treatment and 72 hours later. Image analysis software was used to obtain cell counts as a function of compound concentration. Kuramochi cells labeled with mApple-H2B were seeded on 384-well assay-ready plates. Plates were placed in an IncuCyte® (Sartorius) and scanned at 0 and 72 hours. IncuCyte® software was used to count the number of fluorescent nuclei in each well. The fold change in cell count from 0 to 72 hours in wells treated with increasing compounds concentrations (10 pts, 1/2 log dilution, 20 μM top concentration) was normalized to DMSO control wells. The normalized cell counts were fit with dose response curves and a GI50 was calculated.

SMILES | IC50 (CDK2/Cyclin E1) [µM] | IC50 [1] [µM]
CN(C(=O)C1CC2(C1)CN(C(=O)c1cncs1)CC2c1nnc(C(F)(F)c2ccc(Cl)c(Cl)c2)o1)C1CC1 (racemic) [Compound I-16, rac-(R)—N-cyclopropyl-8-(5-((3,4-dichlorophenyl)difluoromethyl)-1,3,4-oxadiazol-2-yl)-N-methyl-6-(thiazole-5-carbonyl)-6-azaspiro[3.4]octane-2-carboxamide] | > 10 | > 20
C[C@@H](OCC1CCCCC1)C(NC(=O)[C@@H]1CCOC12CN(C(=O)[C@H]1CC1(C)C)C2)C(=O)N1CCCCC1 (single isomer, unassigned) [I-29 1st] | > 10 | > 20
C[C@@H](OCC1CCCCC1)[C@H](NC(=O)[C@H]1CCOC12CN(C(=O)[C@H]1CC1(C)C)C2)C(=O)N1CCCCC1 (single isomer, unassigned) [I-29 2nd] | > 10 | > 20
C[C@@H](OCC1CCCCC1)[C@H](NC(=O)[C@@H]1CCOC12CN(C(=O)[C@H]1CC1(C)C)C2)C(=O)N1CCC[C@H](N)C1 (single isomer, unassigned) [I-31 1st] | > 10 | > 20
C[C@@H](OCC1CCCCC1)[C@H](NC(=O)[C@H]1CCOC12CN(C(=O)[C@H]1CC1(C)C)C2)C(=O)N1CCC[C@H](N)C1 (single isomer, unassigned) [I-31 2nd] | > 10 | > 20
C[C@@H](OCC1CCCCC1)[C@H](NC(=O)[C@@H]1CCOC12CN(C(=O)[C@H]1CC1(C)C)C2)C(=O)N1CCC[C@@H](N)C1 (single isomer, unassigned) [I-34 1st] | > 10 | > 20
C[C@@H](OCC1CCCCC1)[C@H](NC(=O)[C@H]1CCOC12CN(C(=O)[C@H]1CC1(C)C)C2)C(=O)N1CCC[C@@H](N)C1 (single isomer, unassigned) [I-34 2nd] | > 10 | > 20
CNC(=O)[C@@H](NC(=O)[C@H]1CCOC12CN(C(=O)[C@H]1CC1(C)C)C2)[C@@H](C)OCC1CCCCC1 (single isomer, unassigned) [I-35 1st] | > 10 | > 20
CNC(=O)[C@@H](NC(=O)[C@@H]1CCOC12CN(C(=O)[C@H]1CC1(C)C)C2)[C@@H](C)OCC1CCCCC1 (single isomer, unassigned) [I-35 2nd] | > 10 | > 20
O=C(c1cc(F)n[nH]1)N1CC(c2nnc(C(F)(F)c3ccc(Cl)c(Cl)c3)o2)C2(CCOCC2)C1 (centres unmarked) [Compound I-1] | > 10 | > 20
O=C(c1cncs1)N1CC(c2nnc(C(F)(F)c3ccc(Cl)c(Cl)c3)o2)C2(CCN(C(=O)[C@H]3CC3(F)F)CC2)C1 (stereo partly drawn) [Compound I-2, (4-(5-((3,4-dichlorophenyl)difluoromethyl)-1,3,4-oxadiazol-2-yl)-2-(thiazole-5-carbonyl)-2,8-diazaspiro[4.5]decan-8-yl)((R)-2,2-difluorocyclopropyl)methanone] | > 10 | > 20
O=C(c1cncs1)N1CC(c2nnc(C(F)(F)c3ccc(Cl)c(Cl)c3)o2)C2(CC(C(=O)N3CCC3)C2)C1 (centres unmarked) [Compound I-3] | – | > 20
CC(=O)N1CC(c2nnc(C(F)(F)c3ccc(Cl)c(Cl)c3)o2)C2(CCOCC2)C1 (centres unmarked) [Compound I-7] | > 10 | > 20
O=C(c1cncs1)N1CC(c2nnc(C(F)(F)c3ccc(Cl)c(Cl)c3)o2)C2(CCS(=O)(=O)CC2)C1 (centres unmarked) [Compound I-8, (4-(5-((3,4-dichlorophenyl)difluoromethyl)-1,3,4-oxadiazol-2-yl)-8,8-dioxido-8-thia-2-azaspiro[4.5]decan-2-yl)(thiazol-5-yl)methanone] | > 10 | > 20
O=C(c1cncs1)N1CC(c2nnc(C(F)(F)c3ccc(Cl)c(Cl)c3)o2)C2(CCNCC2)C1 (centres unmarked) [Compound I-9] | > 10 | > 20
O=C(c1cnccn1)N1CC(c2nnc(C(F)(F)c3ccc(Cl)c(Cl)c3)o2)C2(CCOCC2)C1 (centres unmarked) [Compound I-10] | > 10 | > 20
O=C(c1cncs1)N1CC(c2nnc(C(F)(F)c3ccc(Cl)c(Cl)c3)o2)C2(CCC2)C1 (centres unmarked) [Compound I-11, (8-(5-((3,4-dichlorophenyl)difluoromethyl)-1,3,4-oxadiazol-2-yl)-6-azaspiro[3.4]octan-6-yl)(thiazol-5-yl)methanone] | > 10 | > 20
O=C(c1cncs1)N1CC(c2nnc(C(F)(F)c3ccc(Cl)c(Cl)c3)o2)C2(CCOCC2)C1 (centres unmarked) [Compound I-12, (4-(5-((3,4-dichlorophenyl)difluoromethyl)-1,3,4-oxadiazol-2-yl)-8-oxa-2-azaspiro[4.5]decan-2-yl)(thiazol-5-yl)methanone] | > 10 | > 20
CC(C)(C)OC(=O)N1CCC2(CC1)CN(C(=O)c1cncs1)CC2c1nnc(C(F)(F)c2ccc(Cl)c(Cl)c2)o1 (centres unmarked) [Compound I-14, tert-butyl 4-(5-((3,4-dichlorophenyl)difluoromethyl)-1,3,4-oxadiazol-2-yl)-2-(thiazole-5-carbonyl)-2,8-diazaspiro[4.5]decane-8-carboxylate] | > 10 | 5 to 20
CC1(C)C[C@@H]1C(=O)N1CCC2(CC1)CN(C(=O)c1cncs1)CC2c1nnc(C(F)(F)c2ccc(Cl)c(Cl)c2)o1 (stereo partly drawn) [Compound I-15, (4-(5-((3,4-dichlorophenyl)difluoromethyl)-1,3,4-oxadiazol-2-yl)-2-(thiazole-5-carbonyl)-2,8-diazaspiro[4.5]decan-8-yl)((S)-2,2-dimethylcyclopropyl)methanone] | > 10 | > 20
COC[C@H]1CCCN(C(=O)[C@@H](NC(=O)[C@@H]2CN(C(=O)c3cncs3)CC23CN([S+]([O-])C(C)(C)C)C3)[C@@H](C)OCC2CCCCC2)C1 (stereo partly drawn) [Compound I-17, (8S)-2-(tert-butylsulfinyl)-N-((2S,3R)-3-(cyclohexylmethoxy)-1-((S)-3-(methoxymethyl)piperidin-1-yl)-1-oxobutan-2-yl)-6-(thiazole-5-carbonyl)-2,6-diazaspiro[3.4]octane-8-carboxamide] | 1 to 10 | > 20
COC[C@H]1CCCN(C(=O)[C@@H](NC(=O)[C@@H]2CN(C(=O)c3cncs3)CC23CN(S(=O)(=O)C2CC2(C)C)C3)[C@@H](C)OCC2CCCCC2)C1 (some centres unmarked) [Compound I-18] | 1 to 10 | –
Cc1ccc(CNC(=O)[C@@H]2CN(C(=O)c3cnn(Cc4ccccc4)c3)CC23CN(C(=O)[C@H]2CC2(C)C)C3)nn1 [Compound I-20] | > 10 | > 20
COC[C@H]1CCCN(C(=O)[C@@H](NC(=O)[C@H]2CN(C(=O)c3cncs3)CC23CN(C(=O)[C@H]2CC2(C)C)C3)[C@@H](C)OCC2CCCCC2)C1 [Compound I-21] | 0.1 to 1 | 5 to 20
CC(=O)N1C[C@@H](C(N)=O)C2(C1)CN(C(C)=O)C2 [Compound I-22, (S)-2,6-diacetyl-2,6-diazaspiro[3.4]octane-8-carboxamide] | > 10 | > 20
C[C@@H](OCC1CCCCC1)[C@H](NC(=O)C1CSCC12CN(C(=O)[C@H]1CC1(C)C)C2)C(=O)N1CCCCC1 (stereo partly drawn) [Compound I-23, N-((2S,3R)-3-(cyclohexylmethoxy)-1-oxo-1-(piperidin-1-yl)butan-2-yl)-2-((S)-2,2-dimethylcyclopropane-1-carbonyl)-6-thia-2-azaspiro[3.4]octane-8-carboxamide] | > 10 | > 20
CC(=O)N[C@@H](C(=O)NC1CN(C(=O)c2cncs2)CC12CN(C(=O)[C@H]1CC1(C)C)C2)[C@H](C)OCC1CCCCC1 (stereo partly drawn) [Compound I-24, (2R,3S)-2-acetamido-3-(cyclohexylmethoxy)-N-(2-((S)-2,2-dimethylcyclopropane-1-carbonyl)-6-(thiazole-5-carbonyl)-2,6-diazaspiro[3.4]octan-8-yl)butanamide] | 1 to 10 | > 20
CC1(C)C[C@@H]1C(=O)N1CC2(CN(C(=O)c3cnn(Cc4ccccc4)c3)CC2C#N)C1 (stereo partly drawn) [Compound I-40, 6-(1-benzyl-1H-pyrazole-4-carbonyl)-2-((S)-2,2-dimethylcyclopropane-1-carbonyl)-2,6-diazaspiro[3.4]octane-8-carbonitrile] | > 10 | –
